Measurements reported in PubChem BioAssay (NCI).
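The compound was tested at five concentrations on cells cultured in 96-well plates, with a 48-hour exposure period. GI50: concentration for 50% inhibition of growth. TGI denotes the concentration required for complete inhibition of growth.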

Assays:
Test in all cases: growth of human tumour cells (NCI), 48 h
SNB-78 CNS = test system: SNB-78 CNS
NCI-H522 lung = test system: NCI-H522 lung
HCT-15 colon = test system: HCT-15 colon
DMS 273 small cell lung = test system: DMS 273 small cell lung
HL-60(TB) leukemia = test system: HL-60(TB) leukemia
HCT-116 colon = test system: HCT-116 colon
KM12 colon = test system: KM12 colon
CAKI-1 renal = test system: CAKI-1 renal
MDA-MB-435 = test system: MDA-MB-435
T-47D breast = test system: T-47D breast

SMILES | TGI (SNB-78 CNS) | TGI (NCI-H522 lung) | TGI (HCT-15 colon) | TGI (DMS 273 small cell lung) | TGI (HL-60(TB) leukemia) | TGI (HCT-116 colon) | TGI (KM12 colon) | TGI (CAKI-1 renal) | TGI (MDA-MB-435) | GI50 (NCI-H522 lung) | GI50 (HCT-15 colon) | GI50 (DMS 273 small cell lung) | GI50 (HL-60(TB) leukemia) | GI50 (CAKI-1 renal) | GI50 (HCT-116 colon) | GI50 (KM12 colon) | TGI (T-47D breast) | GI50 (MDA-MB-435) | GI50 (T-47D breast)
CCCCCCCCCCCCOC(=S)NC | 61.8 µM | 58 µM | 32.5 µM | 34.4 µM | > 100 µM | 30.8 µM | 27.8 µM |  |  |  |  |  |  |  |  |  |  |  | 
CC(=O)NNc1nc(C)c(C(/C=C/c2ccc(Cl)cc2)=N/NC(=S)NN)s1 | > 100 µM | > 100 µM | > 100 µM | > 100 µM | > 100 µM | > 100 µM | > 100 µM | > 100 µM |  |  |  |  |  |  |  |  |  |  | 
COc1cc(CCC(=O)NS(=O)(=O)c2ccccc2)cc(OC)c1OC | > 100 µM | > 100 µM |  | > 100 µM | > 100 µM | > 100 µM | > 100 µM | > 100 µM |  |  |  |  |  |  |  |  |  |  | 
COc1ccc(CC(C#N)c2cc(OC)c(OC)c(OC)c2)cc1 (stereo unspecified) | > 100 µM | 0.135 µM | 11 µM | 0.405 µM | 0.125 µM | 3.88 µM | 4.95 µM | > 81 µM | > 100 µM |  |  |  |  |  |  |  |  |  | 
CN(Cc1ccccc1)c1nc(=[N+](C)C)ss1 | > 100 µM | > 100 µM | > 100 µM | > 100 µM | > 100 µM | > 100 µM | > 100 µM | > 100 µM |  |  |  |  |  |  |  |  |  |  | 
Cc1cccc(NC(=O)Cc2nc3ccccc3s2)c1C |  | > 100 µM | > 100 µM | > 100 µM | > 100 µM |  | > 100 µM | > 100 µM |  |  |  |  |  |  |  |  |  |  | 
CCc1ccccc1NC(=O)C1=C(C)NC(C)=C(C(=O)Nc2ccccc2CC)C1c1ccc(NC(C)=O)cc1 | 82.1 µM | 71.1 µM |  |  | 39.5 µM | > 100 µM | > 100 µM | > 100 µM |  |  |  |  |  |  |  |  |  |  | 
O/N=C1/C(=C/c2ccc(Cl)cc2)CCCC1C(NO)c1ccc(Cl)cc1 (stereo unspecified) | 48.5 µM | 62.8 µM | 46.8 µM | 41.2 µM | 43.3 µM | 67.1 µM | 40.6 µM | 53.5 µM |  |  |  |  |  |  |  |  |  |  | 
CCCCCC/C=C/CCCCCCCc1cccc(O)c1C(=O)O | > 100 µM | > 100 µM | > 100 µM | > 100 µM | > 100 µM | > 100 µM | > 100 µM | > 100 µM |  |  |  |  |  |  |  |  |  |  | 
O=C(O)C1=C(Cl)c2ccccc2S1(=O)=O | > 100 µM | 40.7 µM | > 100 µM |  | > 100 µM |  | > 100 µM | > 100 µM |  |  |  |  |  |  |  |  |  |  | 
C/C(CC(=O)Nc1ccc(NC(=O)/C(C)=N/NS(=O)(=O)c2ccc(C)cc2)cc1)=N\NS(=O)(=O)c1ccc(C)cc1 | > 100 µM |  | > 100 µM |  | > 100 µM | > 100 µM | > 100 µM | > 100 µM |  |  |  |  |  |  |  |  |  |  | 
CC(=O)Oc1cc(OC(C)=O)c2cc3c(cc2c1OC(C)=O)C(=O)C1(CCCC1)C3=O | 50 µM |  | 39.3 µM | 35.8 µM | 73.6 µM |  |  | 25.2 µM |  |  |  |  |  |  |  |  |  |  | 
N#CNc1nc(C(=O)Nc2ccc(Cl)cc2)cc(-c2ccccc2)n1 | > 100 µM |  | > 100 µM | > 100 µM | > 100 µM | > 100 µM | > 100 µM | > 100 µM |  |  |  |  |  |  |  |  |  |  | 
CCN1CCC(O)(c2ccc(Cl)c(Cl)c2)C(C(=O)c2ccc(Cl)c(Cl)c2)C1 (stereo unspecified) |  | 13 µM | 36.6 µM | 34 µM | 33.4 µM | 32.4 µM |  | 32.6 µM |  |  |  |  |  |  |  |  |  |  | 
CC(=O)[CH-]C(=O)c1ccccc1.CC(=O)[CH-]C(=O)c1ccccc1.CC[O-].O=C1C=C([O-])C(=O)c2ccccc21.[Ti+4] |  | 69.3 µM | > 100 µM | > 100 µM | 80 µM | > 100 µM | > 100 µM | > 100 µM |  | 10.6 µM | 56.2 µM | 96.4 µM | 16.1 µM | > 100 µM | 62.5 µM | 32.2 µM |  |  | 
CC(=O)OC1C/C(C)=C/[C@H](O)CC(C)/C=C/[C@@]2(C)CCC(C(C)(C)O)C12 (stereo partly specified) | > 100 µM |  | > 100 µM | > 100 µM | > 100 µM | > 100 µM | > 100 µM | > 100 µM |  |  |  |  |  |  |  |  |  |  | 
O=C(Nc1ccccc1)OCc1nc2c([nH]1)C(=O)C=CC2=O | 45.3 µM |  | 38 µM | 42 µM | 15.2 µM | 28.4 µM | 29 µM | 13.4 µM |  |  |  |  |  |  |  |  |  |  | 
O=C1c2c(O)cccc2C(C(=O)CCCC(=O)C2c3cccc(O)c3C(=O)c3c(O)cccc32)c2cccc(O)c21 | 0.785 µM |  | 1.38 µM | 1.26 µM |  | 3.79 µM | 0.868 µM | 4.45 µM | 2.5 µM |  |  |  |  |  |  |  | 0.941 µM |  | 
CN(/C(=N\O)c1ccccc1)c1ccccc1 | 88.7 µM | 40.3 µM |  | 50.7 µM | 48.7 µM | > 100 µM | > 100 µM | > 100 µM |  |  |  |  |  |  |  |  |  |  | 
O/N=C1/C(=C/c2ccccc2)CCCC1C(NO)c1ccccc1 (stereo unspecified) | > 100 µM | > 100 µM | > 100 µM | > 100 µM | 5.03 µM | > 100 µM | > 100 µM |  |  |  |  |  |  |  |  |  |  |  | 
COC(=O)C1CCC(N2C(=O)CCC2C(=O)OC)=N1 (stereo unspecified) | > 100 µM | > 100 µM | > 100 µM | > 100 µM | > 100 µM | > 100 µM | > 100 µM | > 100 µM |  |  |  |  |  |  |  |  |  |  | 
O=C(Nc1ccc([N+](=O)[O-])cc1)c1cc2ccccc2cc1O |  | 1.61 µM | 5.07 µM |  | 0.909 µM | 1.32 µM | 2.68 µM | 0.955 µM | 1.64 µM | 0.268 µM | 0.365 µM |  | 0.235 µM | 0.26 µM | 0.319 µM | 0.698 µM | 8.89 µM | 0.321 µM | 0.39 µM
CN(C(=O)C1CC1)C1C2CN3CCC(O2)C13 (stereo unspecified) | > 100 µM | > 100 µM | > 100 µM | > 100 µM | > 100 µM | > 100 µM | > 100 µM | > 100 µM |  |  |  |  |  |  |  |  |  |  | 
Cc1cc(S(=O)(=O)Nc2nc3ccsc3c(=O)n2Cc2ccccc2)c(S)cc1Cl |  | > 100 µM | > 100 µM |  | > 100 µM | 37.7 µM | 48.2 µM | > 100 µM | 91.6 µM | 37 µM | 74.5 µM |  | > 100 µM | 41.2 µM | 19.2 µM | 20.1 µM | > 100 µM | 29.3 µM | 52.4 µM
COc1cc(C(=C2SCCS2)c2nccc3cc(OC)c(OC)cc23)c([N+](=O)[O-])cc1OC | > 100 µM | > 100 µM |  | > 100 µM | 94.6 µM | > 100 µM | > 100 µM |  |  |  |  |  |  |  |  |  |  |  | 
